Data published in patent US4256764A, “Process for making derivatives of dimers of isoeugenol” (PLC Pharmaceutical Licenses Co. Ltd., priority 1978, dated 1981).

Columns and labels:
[1] = system: serum enzymes GOT and GPT; test: galactosamine test (liver protection, serum enzymes GOT and GPT); type: in vivo; settings: rats
Experimental: (§1) These tests have been described in the already-quoted work by G. Vogel et al. published in Arzneimittelforschung, volume 25 (1975), pages 82 to 89 and 179 to 188.
In the galactosamine tests the rats received in groups each of 15 animals 100 mg/kg of the compound to be tested N-(5-(trans-2,3-dihydro-7-methoxy-3-methyl-5-(E)-propenylbenzofuran-2-yl)- 2-hydroxy-3-methoxy-phenylmethyl)-N-(2-hydroxyethyl)-N-methyl-ammonium chloride and for comparison purposes Silymarine in the tragacanth suspension perorally, one hour later interperitoneally 350 mg/kg of galactosamine hydrochloride and 24 hours later blood samples were taken for determining the serum enzymes GOT and GPT.

mice = test: α amanitine test (mortality); type: in vivo; settings: 20 per group, 50 mg/kg i.v., 0.7 mg/kg α amanitine i.p. 1 h later, observed 7 days
Experimental: as §1
In the α amanitine test the mice received in groups of 20 animals each 50 mg/kg of N-(5-(trans-2,3-dihydro-7-methoxy-3-methyl-5-(E)-propenylbenzofuran-2-yl)-2--hydroxy-3-methoxyphenyl-methyl)-N) (2-hydroxyethyl)-N-methyl ammonium chloride and for comparison Silymarine intravenously and an hour later 0.7 mg/kg of α amanitine intraperitoneally.

[2] = toxicologic investigations (LD50); settings: rat, in vivo, po; rats, peroral application
Description: The toxicologic investigations indicate a good compatibility of the compounds produced by the process according to the invention.

[3] = system: experimental liver damage; test: hexobarbitone sleep test (experimental liver damage by carbon tetrachloride); type: in vivo; settings: rats
Experimental: A standard testing process for pharmacological effect for experimental liver damage is the hexobarbitone sleep test, whose execution is described among others in a work by G. Vogel et al. in the Arzneimittelforschung, volume 25 (1975), pp. 82-89 and pp. 179-188. For this purpose 100 mg/kg of the compound to be tested were given to rats in groups each of 15 animals in carboxymethyl cellulose intraperitoneally and 90 minutes later 0.3 ml/kg carbon tetrachloride in olive oil by means of a throat probe. The rats were anaesthetised 48 hours later by intraperitoneal dosing of 70 mg/kg of hexabarbitone and the sleep duration was determined: […]

[4] = 100 mg/kg perorally, enzyme GPT
[5] = 15 per group, 100 mg/kg perorally in tragacanth suspension, 350 mg/kg galactosamine hydrochloride i.p. 1 h later, blood samples 24 h later

SMILES	effect on GPT compared with Silymarine [1, 4]	statistical significance of the effect on GPT [1, 4]	GOT [1, 5]	GPT [1, 5]	mortality rate (mice) [%]	LD50 [2] [mg/kg]	statistical significance of the effect (sleep duration) ([3]; 100 mg/kg i.p., carbon tetrachloride)	sleep duration ([3]; 15 per group, 100 mg/kg i.p. in carboxymethyl cellulose, 0.3 ml/kg carbon tetrachloride 90 min later, 70 mg/kg hexobarbitone i.p. after 48 h) [min]
C/C=C/c1cc(OC)c2c(c1)[C@@H](C)[C@H](c1cc(CN(C)CCO)c(O)c(OC)c1)O2.Cl (relative stereo) [N-(5-(trans-2,3-dihydro-7-methoxy-3-methyl-5-(E)-propenylbenzofuran-2-yl)-2-hydroxy-3-methoxy-phenylmethyl)-N-(2-hydroxyethyl)-N-methyl-ammonium chloride]	clearly better than that of Silymarine	highly significant	422	185	20	4000 to 16000	–	–
C/C=C/c1cc(OC)c2c(c1)[C@@H](C)[C@H](c1ccc(O)c(OC)c1)O2 (relative stereo) [dehydrodiisoeugenol, trans-2,3-dihydro-2-(4-hydroxy-3-methoxyphenyl)-7-methoxy-3-methyl-5-(E)-propenylbenzofurane]	–	–	–	–	–	–	highly significant	97
